For one assay, the system named is A431 cells. Put plainly: Long-term clonogenic assay, 14 days. The class given is cell-based, human. Particulars: 25 and 50 µM, crystal violet, three experiments in duplicates, result in words. As to the method:
Subsequently, the dissolved drugs were added.

In the next assay the test system is RUMH cells. Put plainly: cells. The class given is cell-based. Particulars: Homo sapiens, EGFR/wt overexpression, 72 h treatment, MTT assay. As to the method:
(§1) The following human cell models were used in this study: the renal cell carcinomas RUMH, the squamous cell carcinoma H520, the epidermoid carcinoma A431, as well as the non-small-cell lung cancer (NSCLC) line HCC827 (sources and used medium are summarized in (Table 2). Unless otherwise indicated, the cells were cultivated in humidified incubators (37 °C, 21% O2, 5% CO2) in full culture medium, containing 10% fetal calf serum (PAA, Linz, Austria). Cell cultures were periodically checked for Mycoplasma contamination.
(§2) Subsequently, the dissolved drugs were added. […] Cytotoxicity was expressed as IC50 values calculated from full dose–response curves using GraphPad Prism software. […] Then, the cells were exposed to the indicated drugs (25 or 50 µM) for 14 days. After washing with phosphate-buffered saline (PBS), the cells were fixed with methanol (−20 °C, 20 min) and after another washing step stained with crystal violet (1 h). […] The sum of fluorescence intensities per well was measured with ImageJ and, after blank subtraction, normalized to the untreated cells.

A further assay has as its system H520 cells. The assay can be described thus: cells. The note with it: Homo sapiens, NCI-H520, 72 h, read-out: IC50 ± SD. The method, then:
as §1, §2

Experimental findings from PMC5443859, “EGFR-targeting peptide-coupled platinum(IV) complexes” (Journal of Biological Inorganic Chemistry, 2017) are described below.

Structures are written as SMILES.

The IC50 is the concentration that inhibits the measured activity by half.

As to `O=C1[O][Pt]2([NH][C@@H]3CCCC[C@H]3[NH]2)[O]C1=O` [oxaliplatin], the “long-term treatment effect, normalized to untreated cells” value in the assay on A431 cells is reported as “too low to be seen in this graph”.

As to `C#Cc1cccc(Nc2ncnc3cc(OCCOC)c(OCCOC)cc23)c1` [Erlotinib, erlotinib], the 50% inhibitory concentration (IC50) in the assay with RUMH cells is 23 ± 2.6 µM; in the assay with H520 cells, above 25 µM.
